# Experimental data published in patent US20240124412A1, “IKAROS ZINC FINGER FAMILY DEGRADERS AND USES THEREOF” (Gilead Sciences, Inc., priority 2021, published 2024).
# Legend:
# IKZF1 = biological target: T1, IKZF1 (Homo sapiens, UniProt Q13422+Q96SW2); assay: HiBiT protein tagging assay, in vitro IKZF1 degradation (HEK293); type: cell-based; details: HEK293, 18-24 hr incubation, normalized to DMSO control; for Dmax: read-out: IKZF1 Dmax (maximum degradation at the highest concentration tested); for DC50: read-out: IKZF1 EC50
# T1 construct: expressed in transfected cells
# In short: (§1)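 Flp-In T-REx HEK293 pools stably expressing C-terminal HiBiT-tagged IKZF1 or IKZF2 were induced overnight with 1 μg/ml doxycycline. Cells were then treated with serially diluted compound for 18-24 hr at 37 °C and read by Nano-Glo lytic luminescence. Data were normalized to 0.5% DMSO as POC; EC50 and Dmax (maximum degradation at highest concentration tested) reported.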
# IKZF2 = biological target: T2, IKZF2 (Homo sapiens, UniProt Q96SW2+Q9UKS7); assay: HiBiT protein tagging assay, in vitro IKZF2 degradation (HEK293); type: cell-based; details: HEK293, 18-24 hr incubation, normalized to DMSO control; for Dmax: HEK293, HiBiT assay, read-out: IKZF2 Dmax (maximum degradation at the highest concentration tested); for DC50: HiBiT assay, read-out: IKZF2 EC50
# T2 construct: expressed in transfected cells
# In short: as §1
# T2 sequence (Q9UKS7 1-500 isoform Q9UKS7-2): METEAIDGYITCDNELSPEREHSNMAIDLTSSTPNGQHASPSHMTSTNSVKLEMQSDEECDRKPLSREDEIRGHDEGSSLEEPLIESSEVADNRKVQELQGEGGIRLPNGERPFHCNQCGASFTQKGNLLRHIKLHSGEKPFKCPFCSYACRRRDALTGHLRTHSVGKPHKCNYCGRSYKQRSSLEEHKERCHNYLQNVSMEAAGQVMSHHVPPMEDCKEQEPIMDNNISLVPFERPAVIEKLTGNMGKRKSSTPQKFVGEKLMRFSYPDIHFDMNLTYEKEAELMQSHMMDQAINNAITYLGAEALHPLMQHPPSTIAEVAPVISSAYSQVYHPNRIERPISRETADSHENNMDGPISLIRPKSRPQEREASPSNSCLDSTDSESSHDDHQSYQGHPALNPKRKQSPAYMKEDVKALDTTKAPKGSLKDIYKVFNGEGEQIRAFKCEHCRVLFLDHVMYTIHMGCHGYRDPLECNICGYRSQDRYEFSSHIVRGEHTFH
# T2 sequence (Q96SW2 whole entry): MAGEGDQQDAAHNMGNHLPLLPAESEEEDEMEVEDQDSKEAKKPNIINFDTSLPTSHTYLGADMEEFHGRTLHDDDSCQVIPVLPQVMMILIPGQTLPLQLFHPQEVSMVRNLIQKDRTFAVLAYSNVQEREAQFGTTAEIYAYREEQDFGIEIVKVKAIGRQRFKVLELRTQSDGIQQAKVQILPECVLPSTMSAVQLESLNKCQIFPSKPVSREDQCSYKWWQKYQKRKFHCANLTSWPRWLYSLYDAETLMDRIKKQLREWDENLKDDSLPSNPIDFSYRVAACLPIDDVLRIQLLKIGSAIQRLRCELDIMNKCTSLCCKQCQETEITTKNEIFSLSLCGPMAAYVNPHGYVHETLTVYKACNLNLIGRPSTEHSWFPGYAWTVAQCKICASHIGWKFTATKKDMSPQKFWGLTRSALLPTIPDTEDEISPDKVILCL
# T2 sequence (Q16531 whole entry partner): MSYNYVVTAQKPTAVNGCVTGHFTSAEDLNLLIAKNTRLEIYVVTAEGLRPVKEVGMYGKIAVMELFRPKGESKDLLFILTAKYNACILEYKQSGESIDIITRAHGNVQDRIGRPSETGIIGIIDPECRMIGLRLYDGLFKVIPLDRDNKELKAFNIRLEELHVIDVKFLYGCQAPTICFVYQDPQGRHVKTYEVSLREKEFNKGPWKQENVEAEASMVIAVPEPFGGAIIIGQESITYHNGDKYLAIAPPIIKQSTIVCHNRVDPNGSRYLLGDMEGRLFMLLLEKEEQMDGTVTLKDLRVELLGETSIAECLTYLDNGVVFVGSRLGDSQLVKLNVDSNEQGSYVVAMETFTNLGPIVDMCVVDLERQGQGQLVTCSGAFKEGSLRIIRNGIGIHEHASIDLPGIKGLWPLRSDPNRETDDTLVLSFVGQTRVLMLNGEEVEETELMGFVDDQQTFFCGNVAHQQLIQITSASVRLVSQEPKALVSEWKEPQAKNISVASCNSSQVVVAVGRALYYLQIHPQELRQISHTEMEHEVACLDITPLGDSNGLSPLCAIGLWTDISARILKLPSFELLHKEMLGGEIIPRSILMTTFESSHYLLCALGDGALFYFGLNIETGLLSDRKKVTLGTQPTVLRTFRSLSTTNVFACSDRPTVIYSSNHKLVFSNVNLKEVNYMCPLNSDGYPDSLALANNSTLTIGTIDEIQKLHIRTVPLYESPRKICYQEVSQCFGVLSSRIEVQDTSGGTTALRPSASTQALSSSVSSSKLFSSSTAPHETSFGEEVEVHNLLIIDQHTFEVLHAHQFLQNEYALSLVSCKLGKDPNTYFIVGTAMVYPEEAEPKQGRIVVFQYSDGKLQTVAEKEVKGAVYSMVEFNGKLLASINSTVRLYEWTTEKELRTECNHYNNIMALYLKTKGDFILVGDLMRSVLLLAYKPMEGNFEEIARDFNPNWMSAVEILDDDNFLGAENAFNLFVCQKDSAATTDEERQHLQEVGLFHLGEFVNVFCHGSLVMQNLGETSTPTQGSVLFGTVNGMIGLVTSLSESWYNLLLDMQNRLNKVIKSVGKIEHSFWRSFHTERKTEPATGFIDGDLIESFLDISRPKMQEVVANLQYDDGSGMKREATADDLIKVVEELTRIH
# T1 sequence (Q13422 whole entry): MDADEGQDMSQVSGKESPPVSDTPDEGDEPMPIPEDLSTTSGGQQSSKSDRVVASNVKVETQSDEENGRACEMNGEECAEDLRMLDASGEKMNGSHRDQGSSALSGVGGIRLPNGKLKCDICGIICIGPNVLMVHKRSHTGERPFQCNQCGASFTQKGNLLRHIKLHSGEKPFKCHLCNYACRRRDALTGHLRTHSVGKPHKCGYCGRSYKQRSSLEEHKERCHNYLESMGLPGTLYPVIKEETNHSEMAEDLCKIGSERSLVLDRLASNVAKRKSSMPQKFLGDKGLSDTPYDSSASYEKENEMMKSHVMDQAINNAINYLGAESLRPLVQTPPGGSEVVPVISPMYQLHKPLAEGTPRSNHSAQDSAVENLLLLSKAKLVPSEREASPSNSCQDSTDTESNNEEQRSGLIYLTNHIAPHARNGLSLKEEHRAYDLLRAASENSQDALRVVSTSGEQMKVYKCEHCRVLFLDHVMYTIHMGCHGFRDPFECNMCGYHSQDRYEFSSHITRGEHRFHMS
# T1 sequence (Q96SW2 whole entry): as the sequence (Q96SW2 whole entry) above
# T1 sequence (Q16531 whole entry partner): as the sequence (Q16531 whole entry partner) above
SMILES,Dmax (IKZF1),DC50 (IKZF1),Dmax (IKZF2),DC50 (IKZF2)
"O=C1CCC(N2Cc3cc(CNC4CC(c5ccccc5)CN(Cc5ccccc5)C4)ccc3C2=O)C(=O)N1 (stereo not shown) [Example 109, 3-(5-(((1-benzyl-5-phenylpiperidin-3-yl)amino)methyl)-1-oxoisoindolin-2-yl)piperidine-2,6-dione]",71%,45 nM,30%,121 nM
O=C1CCC(N2Cc3cc(CN[C@H]4CCC[C@@H](Oc5ccccc5)C4)ccc3C2=O)C(=O)N1 (stereo partly shown) [Example 110],55%,105 nM,72%,118 nM
O=C1CCC(N2Cc3cc(CN[C@H]4CCC[C@@H](OCc5ccccc5)C4)ccc3C2=O)C(=O)N1 (stereo partly shown) [Example 111],61%,85 nM,56%,206 nM
O=C1CCC(N2Cc3cc(CN[C@@H]4CCC[C@H](OCc5ccccc5)C4)ccc3C2=O)C(=O)N1 (stereo partly shown) [Example 112],95%,7 nM,90%,75 nM
CC1(NCc2ccc3c(c2)CN(C2CCC(=O)NC2=O)C3=O)CCCCC1 (stereo not shown) [Example 113],27%,96 nM,95%,49 nM
"O=C1CCC(N2Cc3cc(CNC4CCC5(CCc6ccccc65)CC4)ccc3C2=O)C(=O)N1 (stereo not shown) [Example 114, 3-(5-(((2′,3′-dihydrospiro[cyclohexane-1,1′-inden]-4-yl)amino)methyl)-1-oxoisoindolin-2-yl)piperidine-2,6-dione]",62%,52 nM,78%,68 nM
O=C1CCC(N2Cc3cc(CN[C@@H]4CCC[C@H](Cc5ccccc5)C4)ccc3C2=O)C(=O)N1 (stereo partly shown) [Example 115],87%,4 nM,97%,8 nM
O=C1CCC(N2Cc3cc(CN[C@H]4CCC[C@@H](Cc5ccccc5)C4)ccc3C2=O)C(=O)N1 (stereo partly shown) [Example 116],82%,23 nM,81%,68 nM
CC1(C)C[C@]2(CC[C@H](NCc3ccc4c(c3)CN(C3CCC(=O)NC3=O)C4=O)CC2)CO1 (stereo partly shown) [Example 117],49%,216 nM,88%,198 nM
CC1(C)C[C@]2(CC[C@@H](NCc3ccc4c(c3)CN(C3CCC(=O)NC3=O)C4=O)CC2)CO1 (stereo partly shown) [Example 118],51%,335 nM,78%,453 nM
"C[C@H]1CC[C@@H](NCc2ccc3c(c2)CN(C2CCC(=O)NC2=O)C3=O)CN1Cc1ccccc1 (stereo partly drawn) [Example 119, 3-(5-((((3R,6S)-1-benzyl-6-methylpiperidin-3-yl)amino)methyl)-1-oxoisoindolin-2-yl)piperidine-2,6-dione]",94%,17 nM,93%,105 nM
O=C1CCC(N2Cc3cc(CN[C@H]4CCCC[C@H]4OCc4ccccc4)ccc3C2=O)C(=O)N1 (stereo partly shown) [Example 120],97%,2 nM,97%,3 nM
O=C1CCC(N2Cc3cc(CNC4CCCC(Cn5cccn5)C4)ccc3C2=O)C(=O)N1 (stereo not shown) [Example 121],93%,169 nM,92%,336 nM
O=C1CCC(N2Cc3cc(CNC4CCCC(Cn5ncc6ccccc65)C4)ccc3C2=O)C(=O)N1 (stereo not shown) [Example 122],97%,22 nM,96%,48 nM
O=C1CCC(N2Cc3cc(CN[C@@H]4CCCN(C(c5ccccc5)C(F)(F)F)C4)ccc3C2=O)C(=O)N1 (stereo partly shown) [Example 123],95%,10 nM,87%,56 nM
"O=C1CCC(N2Cc3cc(CN[C@@H]4CCCN(Cc5cccnc5)C4)ccc3C2=O)C(=O)N1 (stereo partly drawn) [Example 124, 3-(1-oxo-5-((((R)-1-(pyridin-3-ylmethyl)piperidin-3-yl)amino)methyl)isoindolin-2-yl)piperidine-2,6-dione]",96%,115 nM,96%,318 nM
"O=C1CCC(N2Cc3cc(CN[C@@H]4CCCN(Cc5ccncc5)C4)ccc3C2=O)C(=O)N1 (stereo partly drawn) [Example 125, 3-(1-oxo-5-((((R)-1-(pyridin-4-ylmethyl)piperidin-3-yl)amino)methyl)isoindolin-2-yl)piperidine-2,6-dione]",95%,124 nM,86%,427 nM
O=C1CCC(N2Cc3cc(CN[C@@H]4CCCC[C@H]4OCc4ccccc4)ccc3C2=O)C(=O)N1 (stereo partly shown) [Example 126],53%,151 nM,93%,79 nM
CO[C@@H]1CCCC[C@H]1NCc1ccc2c(c1)CN(C1CCC(=O)NC1=O)C2=O (stereo partly shown) [Example 127],57%,213 nM,85%,170 nM
